Measurements: the NIST ThermoML archive (doi:10.1016/j.jct.2005.03.027)
Numbers after ± are expanded uncertainties.

Key:
[1] = xn = mol fraction of the nth substance listed; conditions: 101 kPa, Liquid
[2] = 101 kPa, Liquid
[3] = refractive index (Na D-line) (dimensionless); conditions: 293.15 K; 101.33 kPa; Liquid; Standard Abbe refractometry

CCCCCCCO [heptan-1-ol] + BrC(Br)C(Br)Br
[1], x2 = 0
Conditions	mass density [kg/m3]	viscosity [mPa·s]
293.15 K	822.39 ± 0.58	7.058 ± 0.11
303.15 K	815.41 ± 0.58	4.821 ± 0.085

BrC(Br)C(Br)Br [1,1,2,2-tetrabromoethane] + CCCCCCO
[1]
Conditions	mass density, 293.15 K [kg/m3]	mass density, 303.15 K [kg/m3]	viscosity, 293.15 K [mPa·s]	viscosity, 303.15 K [mPa·s]
x1 = 0.1001	1021.6 ± 0.98	1012.63 ± 0.97	5.764 ± 0.09	4.031 ± 0.07
x1 = 0.2007	1227.75 ± 1.1	1216.94 ± 1.1	6.116 ± 0.094	4.348 ± 0.074
x1 = 0.3004	1434.26 ± 1.4	1421.62 ± 1.4	6.633 ± 0.1	4.709 ± 0.08
x1 = 0.4004	1643.89 ± 1.6	1629.48 ± 1.6	7.123 ± 0.11	5.112 ± 0.086
x1 = 0.5005	1856.54 ± 1.9	1840.42 ± 1.9	7.644 ± 0.11	5.542 ± 0.091
x1 = 0.6008	2072.22 ± 2.3	2054.51 ± 2.2	8.195 ± 0.12	6.009 ± 0.096
x1 = 0.6999	2288.24 ± 2.6	2269.06 ± 2.5	8.786 ± 0.12	6.508 ± 0.1
x1 = 0.8012	2512.37 ± 2.9	2491.76 ± 2.9	9.433 ± 0.13	7.068 ± 0.11
x1 = 0.9001	2734.51 ± 3.3	2712.53 ± 3.2	10.14 ± 0.14	7.699 ± 0.12
x1 = 1	2963.2 ± 3.5	2939.86 ± 3.5	10.94 ± 0.15	8.413 ± 0.12

BrC(Br)C(Br)Br [1,1,2,2-tetrabromoethane] + CCCCCCCO
[1]
Conditions	mass density, 293.15 K [kg/m3]	mass density, 303.15 K [kg/m3]	viscosity, 293.15 K [mPa·s]	viscosity, 303.15 K [mPa·s]
x1 = 0.099	1001.11 ± 0.9	992.57 ± 0.9	7.314 ± 0.11	5.033 ± 0.087
x1 = 0.1999	1189.38 ± 1.1	1179.18 ± 1	7.577 ± 0.11	5.262 ± 0.09
x1 = 0.3001	1383.2 ± 1.3	1371.29 ± 1.3	7.86 ± 0.12	5.513 ± 0.093
x1 = 0.3995	1582.25 ± 1.5	1568.62 ± 1.5	8.171 ± 0.12	5.801 ± 0.096
x1 = 0.5006	1792.24 ± 1.8	1776.88 ± 1.8	8.531 ± 0.12	6.128 ± 0.099
x1 = 0.5987	2003.6 ± 2.2	1986.59 ± 2.1	8.915 ± 0.13	6.484 ± 0.1
x1 = 0.6993	2229.07 ± 2.5	2210.42 ± 2.5	9.351 ± 0.13	6.886 ± 0.11
x1 = 0.799	2461.79 ± 2.9	2441.56 ± 2.8	9.836 ± 0.14	7.336 ± 0.11
x1 = 0.8992	2706 ± 3.3	2684.21 ± 3.2	10.38 ± 0.14	7.862 ± 0.12
x1 = 1	2963.2 ± 3.5	2939.86 ± 3.5	10.94 ± 0.15	8.413 ± 0.12

CCCCCCCO [heptan-1-ol]
[2]
Conditions	mass density [kg/m3]	viscosity [mPa·s]
293.15 K	822.39 ± 0.58	7.058 ± 0.11
303.15 K	815.41 ± 0.58	4.821 ± 0.085

Conditions	refractive index
[3]	1.42397 ± 0.00075

BrC(Br)C(Br)Br [1,1,2,2-tetrabromoethane]
[2]
Conditions	mass density [kg/m3]	viscosity [mPa·s]
293.15 K	2963.2 ± 3.5	10.94 ± 0.15
303.15 K	2939.86 ± 3.5	8.413 ± 0.12

Conditions	refractive index
[3]	1.63535 ± 0.00075

CCCCCCCCCCO [decan-1-ol]
[2]
Conditions	mass density [kg/m3]	viscosity [mPa·s]
293.15 K	829.7 ± 0.57	14.54 ± 0.2
303.15 K	822.85 ± 0.58	9.676 ± 0.16

Conditions	refractive index
[3]	1.43706 ± 0.00075

CCCCCCCCCCO [decan-1-ol] + BrC(Br)C(Br)Br
[1], x2 = 0
Conditions	mass density [kg/m3]	viscosity [mPa·s]
293.15 K	829.7 ± 0.57	14.54 ± 0.2
303.15 K	822.85 ± 0.58	9.676 ± 0.16

CCCCCCO [hexan-1-ol] + BrC(Br)C(Br)Br
[1], x2 = 0
Conditions	mass density [kg/m3]	viscosity [mPa·s]
293.15 K	818.92 ± 0.58	5.37 ± 0.085
303.15 K	811.73 ± 0.59	3.744 ± 0.065

BrC(Br)C(Br)Br [1,1,2,2-tetrabromoethane] + CCCCCCCCCCO
[1]
Conditions	mass density, 293.15 K [kg/m3]	mass density, 303.15 K [kg/m3]	viscosity, 293.15 K [mPa·s]	viscosity, 303.15 K [mPa·s]
x1 = 0.1023	968.19 ± 0.77	960.09 ± 0.77	14.09 ± 0.2	9.449 ± 0.15
x1 = 0.202	1114.37 ± 0.89	1104.97 ± 0.87	13.66 ± 0.19	9.246 ± 0.15
x1 = 0.3012	1272.36 ± 1.1	1261.57 ± 1.1	13.24 ± 0.19	9.048 ± 0.15
x1 = 0.4012	1446.62 ± 1.3	1434.34 ± 1.3	12.82 ± 0.18	8.863 ± 0.14
x1 = 0.5007	1636.66 ± 1.6	1622.78 ± 1.6	12.43 ± 0.17	8.701 ± 0.14
x1 = 0.6006	1847.04 ± 1.9	1831.45 ± 1.9	12.06 ± 0.17	8.57 ± 0.13
x1 = 0.7011	2081.74 ± 2.3	2064.32 ± 2.3	11.74 ± 0.16	8.482 ± 0.13
x1 = 0.8006	2340.68 ± 2.8	2321.36 ± 2.7	11.45 ± 0.16	8.437 ± 0.13
x1 = 0.9006	2632.79 ± 3.2	2611.47 ± 3.2	11.19 ± 0.15	8.422 ± 0.12
x1 = 1	2963.2 ± 3.5	2939.86 ± 3.5	10.94 ± 0.15	8.413 ± 0.12

CCCCCCCCO [octan-1-ol] + BrC(Br)C(Br)Br
[1], x2 = 0
Conditions	mass density [kg/m3]	viscosity [mPa·s]
293.15 K	824.99 ± 0.58	9.219 ± 0.13
303.15 K	818.09 ± 0.58	6.358 ± 0.11

CCCCCO [pentan-1-ol] + BrC(Br)C(Br)Br
[1], x2 = 0
Conditions	mass density [kg/m3]	viscosity [mPa·s]
293.15 K	815.03 ± 0.58	4.052 ± 0.065
303.15 K	807.6 ± 0.59	2.926 ± 0.05

BrC(Br)C(Br)Br [1,1,2,2-tetrabromoethane] + CCCCCCCCO
[1]
Conditions	mass density, 293.15 K [kg/m3]	mass density, 303.15 K [kg/m3]	viscosity, 293.15 K [mPa·s]	viscosity, 303.15 K [mPa·s]
x1 = 0.099	–	980.93 ± 0.85	–	6.446 ± 0.11
x1 = 0.101	989.26 ± 0.85	–	9.28 ± 0.15	–
x1 = 0.1999	–	1151.32 ± 0.97	–	6.535 ± 0.11
x1 = 0.2013	1161.15 ± 0.99	–	9.347 ± 0.15	–
x1 = 0.2997	1338.99 ± 1.2	–	9.426 ± 0.14	–
x1 = 0.3001	–	1327.63 ± 1.2	–	6.646 ± 0.11
x1 = 0.3994	1529.17 ± 1.5	–	9.527 ± 0.14	–
x1 = 0.3995	–	1516.19 ± 1.4	–	6.774 ± 0.11
x1 = 0.5002	1732.98 ± 1.8	–	9.661 ± 0.14	–
x1 = 0.5006	–	1718.29 ± 1.7	–	6.947 ± 0.11
x1 = 0.5987	–	1931.52 ± 2.1	–	7.155 ± 0.12
x1 = 0.6003	1947.95 ± 2.1	–	9.831 ± 0.16	–
x1 = 0.6993	–	2157.22 ± 2.4	–	7.398 ± 0.11
x1 = 0.6998	2175.4 ± 2.4	–	10.04 ± 0.14	–
x1 = 0.799	–	2399.36 ± 2.8	–	7.708 ± 0.13
x1 = 0.7998	2419.28 ± 2.8	–	10.32 ± 0.17	–
x1 = 0.8992	–	2662.77 ± 3.2	–	8.065 ± 0.14
x1 = 0.9011	2684.42 ± 3.3	–	10.63 ± 0.17	–
x1 = 1	2963.2 ± 3.5	2939.86 ± 3.5	10.94 ± 0.15	8.413 ± 0.12

CCCCCCO [hexan-1-ol]
[2]
Conditions	mass density [kg/m3]	viscosity [mPa·s]
293.15 K	818.92 ± 0.58	5.37 ± 0.085
303.15 K	811.73 ± 0.59	3.744 ± 0.065

Conditions	refractive index
[3]	1.41826 ± 0.00075

CCCCCO [pentan-1-ol]
[2]
Conditions	mass density [kg/m3]	viscosity [mPa·s]
293.15 K	815.03 ± 0.58	4.052 ± 0.065
303.15 K	807.6 ± 0.59	2.926 ± 0.05

Conditions	refractive index
[3]	1.40995 ± 0.00075

CCCCCCCCO [octan-1-ol]
[2]
Conditions	mass density [kg/m3]	viscosity [mPa·s]
293.15 K	824.99 ± 0.58	9.219 ± 0.13
303.15 K	818.09 ± 0.58	6.358 ± 0.11

Conditions	refractive index
[3]	1.42958 ± 0.00075

BrC(Br)C(Br)Br [1,1,2,2-tetrabromoethane] + CCCCCO
[1]
Conditions	mass density, 293.15 K [kg/m3]	mass density, 303.15 K [kg/m3]	viscosity, 293.15 K [mPa·s]	viscosity, 303.15 K [mPa·s]
x1 = 0.1009	1048.36 ± 1.1	1038.85 ± 1.1	4.543 ± 0.073	3.24 ± 0.055
x1 = 0.2014	1276.63 ± 1.2	1265.1 ± 1.2	5.078 ± 0.081	3.639 ± 0.062
x1 = 0.3004	1497.47 ± 1.5	1484.08 ± 1.4	5.653 ± 0.088	4.078 ± 0.069
x1 = 0.4003	1716.5 ± 1.8	1701.36 ± 1.7	6.278 ± 0.095	4.563 ± 0.076
x1 = 0.5014	1934.64 ± 2	1917.88 ± 2	6.942 ± 0.1	5.089 ± 0.084
x1 = 0.6001	2144.16 ± 2.4	2125.93 ± 2.3	7.621 ± 0.11	5.631 ± 0.09
x1 = 0.7001	2353.22 ± 2.7	2333.58 ± 2.6	8.346 ± 0.12	6.217 ± 0.098
x1 = 0.7998	2558.61 ± 3	2537.64 ± 3	9.119 ± 0.13	6.846 ± 0.11
x1 = 0.8997	2761.73 ± 3.3	2739.49 ± 3.3	9.968 ± 0.14	7.555 ± 0.11
x1 = 1	2963.2 ± 3.5	2939.86 ± 3.5	10.94 ± 0.15	8.413 ± 0.12
